This data set is described as follows: In vivo treatment of healthy PVG.1N rats with single substances (safety data). Conditions: i.v.; for (severe) side effects (breathing, sleep, food intake, mobility, skin, weight): Picibanil 0.35 μg/rat, PGE2 1 μg/rat, PGE1 1 μg/rat; for Flow cytometric analyzes on blood cells (Teff, Treg, CD4, CD8, NK, NKT cells) compared to placebo: data not shown. As to the method: Safety data were performed on a total of 4 rats of the healthy strain PVG.1N: they were given the clinically intended final concentrations of the single substances i.v. in the following doses: Picibanil (0.35 μg/rat), PGE2 (1 μg/rat), PGE1 (1 μg/rat) and placebo (PBS).

Experimental findings from patent publication US10912820B2, “Use of immunomodulatory kits for immunotherapeutic treatment of patients with myeloid leukemias” (Modiblast Pharma GmbH, priority 2014, dated 2021) are described below.

`CCCCC[C@H](O)/C=C/[C@H]1[C@H](O)CC(=O)[C@@H]1C/C=C\CCCC(=O)O` [PGE2, Prostaglandin E2]: the “(severe) side effects (breathing, sleep, food intake, mobility, skin, weight)” value is recorded as “no (severe) side effects” and the “Flow cytometric analyzes on blood cells (Teff, Treg, CD4, CD8, NK, NKT cells) compared to placebo” value was “no difference compared to the placebo controls”.

On to `CCCCC[C@H](O)/C=C/[C@H]1[C@H](O)CC(=O)[C@@H]1CCCCCCC(=O)O` [PGE1, Alprostadil], for which the “(severe) side effects (breathing, sleep, food intake, mobility, skin, weight)” value is reported as “no (severe) side effects” and the “Flow cytometric analyzes on blood cells (Teff, Treg, CD4, CD8, NK, NKT cells) compared to placebo” value is on record as “no difference compared to the placebo controls”.
